This assay deals with CD2F1 mice, L1210 leukemia ip, survival T/C. The experiment in a line: NCI In Vivo Anticancer Drug Screen. Data for tumor model L1210 Leukemia (intraperitoneal) in CD2F1 (CDF1) mice. To be noted: higher = longer survival. An outline of the steps: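 Implant tumor; dose compound or vehicle; measure endpoint in both groups; report treated divided by control.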
Setting [1] is: endpoint: mean survival time, dose: 100.0 mg/kg/injection, schedule: Q01DX009 (ip), vehicle: saline with Tween-80.
Setting [2] is: endpoint: mean survival time, dose: 100.0 mg/kg/injection, schedule: Q04DX003 (ip), vehicle: saline with Tween-80.
The mark [3] stands for this setting: endpoint: mean survival time, dose: 100.0 mg/kg/injection, schedule: Q04DX003 (ip), vehicle: saline.
The mark [4] stands for this setting: endpoint: mean survival time, dose: 200.0 mg/kg/injection, schedule: Q01DX009 (ip), vehicle: saline with Tween-80.
Setting [5] is: endpoint: mean survival time, dose: 200.0 mg/kg/injection, schedule: Q04DX003 (ip), vehicle: saline with Tween-80.
The mark [6] stands for this setting: endpoint: mean survival time, dose: 200.0 mg/kg/injection, schedule: Q04DX003 (ip), vehicle: saline.
[7] abbreviates: endpoint: mean survival time, dose: 400.0 mg/kg/injection, schedule: Q01DX009 (ip), vehicle: saline with Tween-80.
The mark [8] stands for this setting: endpoint: mean survival time, dose: 400.0 mg/kg/injection, schedule: Q04DX003 (ip), vehicle: saline with Tween-80.

Values joined by “and” are separate entries in the source; they are usually repeats but may differ in a detail not shown here. Identical values can stand only once. Toxic doses and inconclusive results are not listed.

As for `CC(=O)C(C(c1ccccc1)N1CCCc2ccccc21)N1CCOCC1` (stereo not given), the T/C was 98 % of control (endpoint: mean survival time, dose: 100.0 mg/kg/injection, schedule: Q04DX003 (ip), vehicle: Klucel (hydroxypropylcellulose) (HPC)); 101 % of control (endpoint: mean survival time, dose: 200.0 mg/kg/injection, schedule: Q04DX003 (ip), vehicle: Klucel (hydroxypropylcellulose) (HPC)); 108 % of control (endpoint: mean survival time, dose: 400.0 mg/kg/injection, schedule: Q04DX003 (ip), vehicle: Klucel (hydroxypropylcellulose) (HPC)).

With `O=[N+]([O-])O.[La]`, the T/C runs as follows: (endpoint: mean survival time, dose: 50.0 mg/kg/injection, schedule: Q01DX009 (ip), vehicle: saline with Tween-80) 90 % of control; under setting [1], 97 % of control; under setting [2], 92 % of control; under setting [3], 97 % of control; under setting [4], 92 % of control; under setting [5], 93 % of control. Under setting [6], the T/C was 98 % of control.

`CCCCCCCCCCCC(=O)N(CCCC)CCCC`: the T/C (endpoint: mean survival time, dose: 100.0 mg/kg/injection, schedule: Q04DX002 (ip), vehicle: saline) was 103 % of control; the T/C (endpoint: mean survival time, dose: 200.0 mg/kg/injection, schedule: Q04DX002 (ip), vehicle: saline) was 103 % of control; the T/C (endpoint: mean survival time, dose: 400.0 mg/kg/injection, schedule: Q04DX002 (ip), vehicle: saline) was 106 % of control.

For the compound `COc1ccc(-c2cc3ccccc3c(=O)o2)cc1`, the T/C reads like this: under setting [1], 98 % of control; under setting [4], 98 % of control; under setting [7], 91 % of control.

Turning to `CC1OC(n2cnc3c(NC(=O)c4ccccc4)ncnc32)C(O)C2OC12` (stereo not given), the T/C (endpoint: median survival time, dose: 12.5 mg/kg/injection, schedule: Q01DX005 (ip), vehicle: alkali diluted with water) is 106 % of control; the T/C (endpoint: median survival time, dose: 25.0 mg/kg/injection, schedule: Q01DX005 (ip), vehicle: alkali diluted with water) was 102 % of control; the T/C (endpoint: median survival time, dose: 50.0 mg/kg/injection, schedule: Q01DX005 (ip), vehicle: alkali diluted with water) was 108 % of control; the T/C (endpoint: median survival time, dose: 100.0 mg/kg/injection, schedule: Q01DX005 (ip), vehicle: alkali diluted with water) is 100 % of control; the T/C (endpoint: median survival time, dose: 200.0 mg/kg/injection, schedule: Q01DX005 (ip), vehicle: alkali diluted with water) is 101 % of control.

As for `O=C(CCN1CC1)Nc1cccc(NC(=O)CCN2CC2)c1`, the T/C (endpoint: mean survival time, dose: 2.5 mg/kg/injection, schedule: Q01DX009 (ip), vehicle: Klucel (hydroxypropylcellulose) (HPC)) was 118 % of control; the T/C (endpoint: mean survival time, dose: 4.0 mg/kg/injection, schedule: Q01DX009 (ip), vehicle: Klucel (hydroxypropylcellulose) (HPC)) is 112 % of control; the T/C (endpoint: mean survival time, dose: 10.0 mg/kg/injection, schedule: Q01DX009 (ip), vehicle: Klucel (hydroxypropylcellulose) (HPC)) is 156 % of control and 165 % of control; the T/C (endpoint: mean survival time, dose: 15.0 mg/kg/injection, schedule: Q01DX009 (ip), vehicle: Klucel (hydroxypropylcellulose) (HPC)) was 108 % of control; the T/C (endpoint: mean survival time, dose: 20.0 mg/kg/injection, schedule: Q01DX009 (ip), vehicle: Klucel (hydroxypropylcellulose) (HPC)) was 96 % of control and 104 % of control.

For the compound `Cc1ccc(C(=O)/C=C/c2ccc(N(C)C)cc2)cc1`, the T/C under setting [2] was 87 % of control, the T/C under setting [5] is 87 % of control and the T/C under setting [8] was 89 % of control.

For the compound `CCOP(=O)(OCC)C(C)c1ccccc1` (stereo not given), the T/C is 100 % of control under setting [1] and 94 % of control under setting [4].

`Nc1ccccc1O`: the T/C was 114 % of control under setting [1]; 100 % of control under setting [3]; 114 % of control under setting [4]; 96 % of control under setting [6]; 119 % of control (endpoint: mean survival time, dose: 400.0 mg/kg/injection, schedule: Q04DX003 (ip), vehicle: saline).

`CC(=O)NC1(C(=O)O)SCCCS1`: the T/C is 92 % of control (endpoint: mean survival time, dose: 50.0 mg/kg/injection, schedule: Q04DX002 (ip), vehicle: saline with Tween-80); 100 % of control (endpoint: mean survival time, dose: 100.0 mg/kg/injection, schedule: Q04DX002 (ip), vehicle: saline with Tween-80); 89 % of control (endpoint: mean survival time, dose: 400.0 mg/kg/injection, schedule: Q04DX002 (ip), vehicle: saline with Tween-80).

As to `CCCCS(=O)C(Cl)CCC` (stereo not given), the T/C is, setting by setting: under setting [2], 97 % of control; under setting [5], 100 % of control.

On to `OCC#CCO`, for which the T/C was 94 % of control (endpoint: mean survival time, dose: 12.0 mg/kg/injection, schedule: Q01DX009 (ip), vehicle: saline); 93 % of control (endpoint: mean survival time, dose: 25.0 mg/kg/injection, schedule: Q01DX009 (ip), vehicle: saline); 104 % of control (endpoint: mean survival time, dose: 50.0 mg/kg/injection, schedule: Q01DX009 (ip), vehicle: saline).

On to `O=[N+]([O-])c1cc(Br)cc(Br)c1[N+](=O)[O-]`, for which the T/C by setting is: (endpoint: mean survival time, dose: 100.0 mg/kg/injection, schedule: Q01DX001 (ip), vehicle: saline with Tween-80) 97 % of control; under setting [1], 102 % of control; (endpoint: mean survival time, dose: 200.0 mg/kg/injection, schedule: Q01DX001 (ip), vehicle: saline with Tween-80) 89 % of control; under setting [4], 102 % of control; (endpoint: mean survival time, dose: 400.0 mg/kg/injection, schedule: Q01DX001 (ip), vehicle: saline with Tween-80) 95 % of control; under setting [7], 98 % of control.

On to `NCC1C2CCC(C2)C1CCCNCCCC1C2CCC(C2)C1CN` (stereo not given), for which the T/C (endpoint: mean survival time, dose: 6.25 mg/kg/injection, schedule: Q04DX002 (ip), vehicle: saline with Tween-80) is 98 % of control; the T/C (endpoint: mean survival time, dose: 12.5 mg/kg/injection, schedule: Q04DX002 (ip), vehicle: saline with Tween-80) is 107 % of control; the T/C (endpoint: mean survival time, dose: 25.0 mg/kg/injection, schedule: Q04DX002 (ip), vehicle: saline with Tween-80) is 114 % of control.

Turning to `O=c1nc(N2CCCC2)ccn1C1OC(CO)C(O)C1O` (stereo not given), the T/C is, setting by setting: (endpoint: median survival time, dose: 12.5 mg/kg/injection, schedule: Q01DX005 (ip), vehicle: water) 100 % of control; (endpoint: median survival time, dose: 25.0 mg/kg/injection, schedule: Q01DX005 (ip), vehicle: water) 101 % of control; (endpoint: median survival time, dose: 50.0 mg/kg/injection, schedule: Q01DX005 (ip), vehicle: water) 108 % of control; (endpoint: median survival time, dose: 100.0 mg/kg/injection, schedule: Q01DX005 (ip), vehicle: water) 101 % of control; (endpoint: median survival time, dose: 200.0 mg/kg/injection, schedule: Q01DX005 (ip), vehicle: water) 104 % of control.

For `COC(C[P+](Cc1ccccc1)(c1ccccc1)c1ccccc1)OC`, the T/C was 104 % of control (endpoint: mean survival time, dose: 18.8 mg/kg/injection, schedule: Q04DX003 (ip), vehicle: saline); 103 % of control (endpoint: mean survival time, dose: 37.5 mg/kg/injection, schedule: Q04DX003 (ip), vehicle: saline); 101 % of control (endpoint: mean survival time, dose: 75.0 mg/kg/injection, schedule: Q01DX001 (ip), vehicle: saline); 98 % of control (endpoint: mean survival time, dose: 75.0 mg/kg/injection, schedule: Q04DX003 (ip), vehicle: saline).

Regarding `CC(C)(C)NC(=O)C1C2CCC(C2)C1C(=O)NC(C)(C)C` (stereo not given), the T/C by setting is: under setting [2], 98 % of control; under setting [5], 102 % of control; under setting [8], 98 % of control.

`CC1CCC2CC(=O)NC(=O)CC12` (stereo not given): the T/C is 98 % of control (endpoint: mean survival time, dose: 6.25 mg/kg/injection, schedule: Q01DX009 (ip), vehicle: saline with Tween-80); 97 % of control (endpoint: mean survival time, dose: 6.25 mg/kg/injection, schedule: Q04DX003 (ip), vehicle: saline with Tween-80); 95 % of control (endpoint: mean survival time, dose: 12.5 mg/kg/injection, schedule: Q01DX009 (ip), vehicle: saline with Tween-80); 97 % of control (endpoint: mean survival time, dose: 12.5 mg/kg/injection, schedule: Q04DX003 (ip), vehicle: saline with Tween-80); 96 % of control (endpoint: mean survival time, dose: 25.0 mg/kg/injection, schedule: Q01DX009 (ip), vehicle: saline with Tween-80); 92 % of control (endpoint: mean survival time, dose: 25.0 mg/kg/injection, schedule: Q04DX003 (ip), vehicle: saline with Tween-80).

On to `CC(C)NC(=O)Oc1ccccc1C(=O)OCc1ccccc1`, for which the T/C was 115 % of control (endpoint: mean survival time, dose: 50.0 mg/kg/injection, schedule: Q01DX009 (ip), vehicle: Klucel (hydroxypropylcellulose) (HPC)); 108 % of control (endpoint: mean survival time, dose: 100.0 mg/kg/injection, schedule: Q01DX009 (ip), vehicle: Klucel (hydroxypropylcellulose) (HPC)); 112 % of control (endpoint: mean survival time, dose: 200.0 mg/kg/injection, schedule: Q01DX009 (ip), vehicle: Klucel (hydroxypropylcellulose) (HPC)).

For `CC1CC2(C)C(CC1=O)CC(C)C1C3CCC(O)C3(C)CCC12` (stereo not given), the T/C was 97 % of control under setting [2], 92 % of control under setting [5] and 95 % of control under setting [8].

With `Cc1cc2ccc(Br)cc2[nH]1`, the T/C is 104 % of control (endpoint: mean survival time, dose: 100.0 mg/kg/injection, schedule: Q01DX001 (ip), vehicle: other); 101 % of control (endpoint: mean survival time, dose: 200.0 mg/kg/injection, schedule: Q01DX001 (ip), vehicle: other); 98 % of control (endpoint: mean survival time, dose: 400.0 mg/kg/injection, schedule: Q01DX001 (ip), vehicle: other).

For the origin of these results see PubChem BioAssay AID256 (DTP/NCI, 2004).
